Laboratory results reported in ChEMBL document CHEMBL1127666, “Phosphonate analogs of carbocyclic nucleotides” (J Med Chem, 1994).

System: HEp-2
Assay: Cytotoxicity to human epidermoid carcinoma cells (HEP-2)
Format: functional, cell-based

Row | Structure (SMILES) | IC50 [µM]
1 | Nc1nc(O)c2ncn(C3CC(O)C(OCP(=O)(O)O)C3)c2n1 (configuration not stated) | 2.4
2 | Nc1nc(O)c2ncn([C@@H]3C[C@H](CO)[C@@H](O)C3)c2n1 | 95
